According to a compilation of properties of binary mixtures (doi:10.1021/acs.jced.8b00334):

Experiment: xn = mol fraction of the nth substance listed
Conditions: 101.3 kPa

CCCCC[P+](CC)(CC)CC.O=S(=O)([N-]S(=O)(=O)C(F)(F)F)C(F)(F)F + CCCCC[N+](CC)(CC)CC.O=S(=O)([N-]S(=O)(=O)C(F)(F)F)C(F)(F)F
x2 = 0
Conditions	viscosity [mPa·s]
288.15 K	150
293.15 K	113
298.15 K	87
303.15 K	69
308.15 K	55
313.15 K	44.5
318.15 K	36.6
328.15 K	25.6
333.15 K	21.8
338.15 K	18.7
343.15 K	16.2
348.15 K	14.2
353.15 K	12.5

CCCCC[N+](CC)(CC)CC.O=S(=O)([N-]S(=O)(=O)C(F)(F)F)C(F)(F)F + CCCCC[P+](CC)(CC)CC.O=S(=O)([N-]S(=O)(=O)C(F)(F)F)C(F)(F)F
viscosity [mPa·s]
Conditions	x1 = 0.2	x1 = 0.4	x1 = 0.6	x1 = 0.8	x1 = 1
283.15 K	229	266	316	386	479
288.15 K	168	192	225	270	329
293.15 K	126	143	165	194	233
298.15 K	97	108	–	144	169
303.15 K	75	84	94	109	–
308.15 K	60	66	74	84	96
313.15 K	48.3	53	58	66	75
318.15 K	–	42.9	47.2	53	60
323.15 K	32.7	35.4	38.6	42.9	48
328.15 K	27.4	29.5	32.1	35.4	39.3
333.15 K	23.2	24.9	26.9	29.5	32.6
338.15 K	19.9	21.2	–	24.9	27.4
343.15 K	17.2	18.3	19.6	21.3	–
348.15 K	15	15.9	16.9	–	19.9
353.15 K	–	13.9	14.8	15.9	–

CCC[N+](C)(C)C.O=S(=O)([N-]S(=O)(=O)C(F)(F)F)C(F)(F)F + CCC[N+]1(C)CCCC1.O=S(=O)([N-]S(=O)(=O)C(F)(F)F)C(F)(F)F
viscosity [mPa·s]
Conditions	x1 = 0.2	x1 = 0.4	x1 = 0.6	x1 = 0.8	x1 = 1
283.15 K	129	–	–	160	–
288.15 K	101	104	–	121	–
293.15 K	78	–	88	94	102
298.15 K	63	65	70	74	79
303.15 K	51	52	56	–	63
308.15 K	–	43.1	–	48.3	51
313.15 K	35.2	35.9	–	39.9	42
318.15 K	29.8	30.3	32.1	–	35
323.15 K	25.5	25.8	27.3	–	–
328.15 K	–	–	23.4	–	25.2
333.15 K	–	–	–	20.9	–
338.15 K	16.8	16.9	17.7	18.2	18.8
343.15 K	14.8	–	15.6	16	16.5
348.15 K	13.2	–	13.8	14.2	14.6
353.15 K	–	11.9	–	12.6	12.9

CCC[N+](C)(C)C.O=S(=O)([N-]S(=O)(=O)C(F)(F)F)C(F)(F)F + CCC[N+]1(C)CCCCC1.O=S(=O)([N-]S(=O)(=O)C(F)(F)F)C(F)(F)F
viscosity [mPa·s]
Conditions	x1 = 0.2	x1 = 0.4	x1 = 0.6	x1 = 0.8	x1 = 1
283.15 K	340	292	–	–	179
288.15 K	240	209	180	149	133
293.15 K	175	154	–	–	102
298.15 K	131	117	103	88	79
303.15 K	101	90	80	70	63
308.15 K	78	–	–	56	51
313.15 K	62	57	51	–	42
318.15 K	51	–	–	38	35
323.15 K	41.5	38.4	35.2	31.8	29.5
328.15 K	34.6	32.1	29.6	27	25.2
333.15 K	29.1	27.2	25.3	23.2	21.7
338.15 K	24.8	23.3	21.7	20	18.8
343.15 K	21.4	–	18.9	–	16.5
348.15 K	18.6	17.6	16.5	–	–
353.15 K	16.3	15.4	14.6	13.6	12.9

CCC[N+]1(C)CCCC1.O=S(=O)([N-]S(=O)(=O)C(F)(F)F)C(F)(F)F + CCC[N+](C)(C)C.O=S(=O)([N-]S(=O)(=O)C(F)(F)F)C(F)(F)F
x2 = 0
Conditions	viscosity [mPa·s]
283.15 K	126
288.15 K	97
293.15 K	76
303.15 K	50
308.15 K	41.1
313.15 K	34.4
318.15 K	29.2
323.15 K	25
328.15 K	21.6
333.15 K	18.8
338.15 K	16.6
343.15 K	14.7
348.15 K	13.1
353.15 K	11.7

CCC[N+]1(C)CCCCC1.O=S(=O)([N-]S(=O)(=O)C(F)(F)F)C(F)(F)F + CCC[N+](C)(C)C.O=S(=O)([N-]S(=O)(=O)C(F)(F)F)C(F)(F)F
x2 = 0
Conditions	viscosity [mPa·s]
283.15 K	397
288.15 K	277
308.15 K	87
318.15 K	55
323.15 K	45.1
328.15 K	37.3
333.15 K	31.4
348.15 K	19.8
353.15 K	17.3
